Assay results reported in ChEMBL document CHEMBL1914384, “Design, synthesis, and structure-activity relationship studies of highly potent novel benzoxazinyl-oxazolidinone antibacterial agents” (J Med Chem, 2011).
In brackets after ≈: the same amount, converted by molar mass.

Assays:
Assay type in all cases: functional
Enterococcus faecalis = assay: Antibacterial activity against Enterococcus faecalis after 16 hrs by agar dilution method
[1] = tested on: Staphylococcus epidermidis; assay: Antibacterial activity against methicillin-resistant Staphylococcus epidermidis after 16 hrs by agar dilution method
Staphylococcus aureus [2] = assay: Antibacterial activity against methicillin-resistant Staphylococcus aureus after 16 hrs by agar dilution method
Streptococcus pneumoniae = assay: Antibacterial activity against penicillin-resistant Streptococcus pneumoniae after 16 hrs by agar dilution method
Staphylococcus aureus [3] = assay: Antibacterial activity against Staphylococcus aureus ATCC 29213 after 16 hrs by agar dilution method; conditions: ATCC 29213, 16 h

SMILES	MIC (Enterococcus faecalis)	MIC [1]	MIC (Staphylococcus aureus [2])	MIC (Streptococcus pneumoniae)	MIC (Staphylococcus aureus [3])
CC(=O)NC[C@@H]1OC(=O)N2c3ccc(N4CCN(Cc5cccc([N+](=O)[O-])c5)CC4)cc3OC[C@@H]12	> 16 µg/mL	> 16 µg/mL	> 16 µg/mL	> 16 µg/mL	> 16 µg/mL
CC(=O)NC[C@@H]1OC(=O)N2c3ccc(-c4ccsc4)cc3OC[C@@H]12	4 µg/mL (≈ 11.6 µM)	2 µg/mL (≈ 5.81 µM)	2 µg/mL (≈ 5.81 µM)	2 µg/mL (≈ 5.81 µM)	2 µg/mL (≈ 5.81 µM)
CC(=O)NC[C@@H]1OC(=O)N2c3ccc(-c4ccc(C#N)nc4)cc3OC[C@H]12	> 16 µg/mL	> 16 µg/mL	> 16 µg/mL	> 16 µg/mL	> 16 µg/mL
CC(=O)NC[C@@H]1OC(=O)N2c3ccc(-c4cncc(C(C)=O)c4)cc3OC[C@@H]12	1 µg/mL (≈ 2.62 µM)	0.5 µg/mL (≈ 1.31 µM)	1 µg/mL (≈ 2.62 µM)	1 µg/mL (≈ 2.62 µM)	1 µg/mL (≈ 2.62 µM)
CC(=O)NC[C@@H]1OC(=O)N2c3cc(F)c(-c4cccnc4)cc3OC[C@@H]12	2 µg/mL (≈ 5.6 µM)	1 µg/mL (≈ 2.8 µM)	1 µg/mL (≈ 2.8 µM)	2 µg/mL (≈ 5.6 µM)	2 µg/mL (≈ 5.6 µM)
CC(=O)NC[C@@H]1OC(=O)N2c3ccc(N4CCN(Cc5ccco5)CC4)cc3OC[C@@H]12	> 16 µg/mL	> 16 µg/mL	16 µg/mL (≈ 37.5 µM)	> 16 µg/mL	> 16 µg/mL
CC(=O)NC[C@@H]1OC(=O)N2c3ccc(-c4ccc(C#N)cn4)cc3OC[C@@H]12	2 µg/mL (≈ 5.49 µM)	1 µg/mL (≈ 2.74 µM)	1 µg/mL (≈ 2.74 µM)	2 µg/mL (≈ 5.49 µM)	2 µg/mL (≈ 5.49 µM)
CC(=O)NC[C@@H]1OC(=O)N2c3ccc(-c4cnc(C#N)nc4)cc3OC[C@@H]12	2 µg/mL (≈ 5.47 µM)	0.5 µg/mL (≈ 1.37 µM)	1 µg/mL (≈ 2.74 µM)	2 µg/mL (≈ 5.47 µM)	1 µg/mL (≈ 2.74 µM)
CC(=O)NC[C@@H]1OC(=O)N2c3ccc(-c4ccc(N5CCOC5=O)cn4)cc3OC[C@@H]12	2 µg/mL (≈ 4.71 µM)	1 µg/mL (≈ 2.36 µM)	1 µg/mL (≈ 2.36 µM)	1 µg/mL (≈ 2.36 µM)	1 µg/mL (≈ 2.36 µM)
CC(=O)NC[C@@H]1OC(=O)N2c3ccc(-c4ccncc4)cc3OC[C@@H]12	1 µg/mL (≈ 2.95 µM)	1 µg/mL (≈ 2.95 µM)	0.5 µg/mL (≈ 1.47 µM)	1 µg/mL (≈ 2.95 µM)	0.5 µg/mL (≈ 1.47 µM)
CC(=O)NC[C@@H]1OC(=O)N2c3ccc(N4CCN(Cc5ccccn5)CC4)cc3OC[C@@H]12	> 16 µg/mL	> 16 µg/mL	> 16 µg/mL	> 16 µg/mL	16 µg/mL (≈ 36.6 µM)
CC(=O)NC[C@@H]1OC(=O)N2c3ccc(N4CCN(Cc5ccc([N+](=O)[O-])o5)CC4)cc3OC[C@@H]12	> 16 µg/mL	2 µg/mL (≈ 4.24 µM)	4 µg/mL (≈ 8.48 µM)	> 8 µg/mL	4 µg/mL (≈ 8.48 µM)
CC(=O)NC[C@@H]1OC(=O)N2c3ccc(-c4ccc(C(=O)N(C)C)nc4)cc3OC[C@@H]12	2 µg/mL (≈ 4.87 µM)	1 µg/mL (≈ 2.44 µM)	1 µg/mL (≈ 2.44 µM)	2 µg/mL (≈ 4.87 µM)	2 µg/mL (≈ 4.87 µM)
CC(=O)NC[C@@H]1OC(=O)N2c3ccc(-c4ccc(NC(C)=O)nc4)cc3OC[C@@H]12	1 µg/mL (≈ 2.52 µM)	1 µg/mL (≈ 2.52 µM)	0.5 µg/mL (≈ 1.26 µM)	1 µg/mL (≈ 2.52 µM)	0.5 µg/mL (≈ 1.26 µM)
CC(=O)NC[C@@H]1OC(=O)N2c3ccc(-c4ccc(C(F)(F)F)nc4)cc3OC[C@@H]12	2 µg/mL (≈ 4.91 µM)	1 µg/mL (≈ 2.45 µM)	1 µg/mL (≈ 2.45 µM)	2 µg/mL (≈ 4.91 µM)	2 µg/mL (≈ 4.91 µM)
CC(=O)NC[C@@H]1OC(=O)N2c3ccc(-c4cccc([N+](=O)[O-])c4)cc3OC[C@@H]12	2 µg/mL (≈ 5.22 µM)	0.5 µg/mL (≈ 1.3 µM)	0.5 µg/mL (≈ 1.3 µM)	0.5 µg/mL (≈ 1.3 µM)	0.5 µg/mL (≈ 1.3 µM)
CC(=O)NC[C@@H]1OC(=O)N2c3ccc(N4CCN(Cc5ccccc5[N+](=O)[O-])CC4)cc3OC[C@@H]12	> 16 µg/mL	8 µg/mL (≈ 16.6 µM)	8 µg/mL (≈ 16.6 µM)	> 16 µg/mL	8 µg/mL (≈ 16.6 µM)
